Experiment: Solubility of Compound 1 in vehicles with various amounts of sorbitan monolaurate
Format: physicochemical
Details: from trend of Compound 1 concentration as a function of pH at a given SML concentration; read-out: estimated pKa
Description: The solubility of Compound 1 was determined in vehicles containing 10 mM pH 7 phosphate buffer, 0.2% polysorbate 20 (PS), 0.8% saline, and various amounts of sorbitan monolaurate (SML). […] At a given SML concentration, the trend of Compound 1 concentration as a function of pH is consistent with an estimated pKa of ˜7. […] The degradation of dissolved Compound 1 was further followed in the drug vehicle containing 0.50% SML and 0.2% PS.

pKa: ~7
Structure (SMILES): CCCCCCCCCCCC(=O)OCN1C(=O)CCc2ccc(OCCCCN3CCN(c4cccc(Cl)c4Cl)CC3)cc21 [Compound 1]

— patent US10639376B2, “Pharmaceutical compositions having improved storage stability” (ALKERMES PHARMA IRELAND LIMITED, priority 2012, dated 2020)
